# Tested on: 941728-121-R-J1-PDC complex spheroid viability
# Experiment: Anticancer human tumor 941728-121-R-J1-PDC patient-derived lung adenocarcinoma cell line growth inhibition [RAS]
# Settings: for IC50: curve of first compound; for viability, T/C: stronger effect = lower value
# Method in brief: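 Tumour cells grown as complex spheroids with HUVEC endothelial cells and mesenchymal stem cells, treated with RAS pathway inhibitor combinations. Each agent spans half-log steps from near clinical Cmax, or 10 microM where Cmax is unknown.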
# [1] = second compound 0.000949 µM, first compound 0.0316 µM
# [2] = second compound 0.000949 µM, first compound 0.1 µM
# [3] = second compound 0.000949 µM, first compound 0.316 µM
# [4] = second compound 0.000949 µM, first compound 1 µM
# [5] = second compound 0.000949 µM, first compound 3.16 µM
# [6] = second compound 0.000949 µM, first compound 10 µM
# [7] = second compound 0.003 µM, first compound 0.0316 µM
# [8] = second compound 0.003 µM, first compound 0.1 µM
# [9] = second compound 0.003 µM, first compound 0.316 µM
# [10] = second compound 0.003 µM, first compound 1 µM
# [11] = second compound 0.003 µM, first compound 3.16 µM
# [12] = second compound 0.003 µM, first compound 10 µM
# [13] = second compound 0.00949 µM, first compound 0.0316 µM
# [14] = second compound 0.00949 µM, first compound 0.1 µM
# [15] = second compound 0.00949 µM, first compound 0.316 µM
# [16] = second compound 0.00949 µM, first compound 1 µM
# [17] = second compound 0.00949 µM, first compound 3.16 µM
# [18] = second compound 0.00949 µM, first compound 10 µM
# [19] = second compound 0.03 µM, first compound 0.0316 µM
# [20] = second compound 0.03 µM, first compound 0.1 µM
# [21] = second compound 0.03 µM, first compound 0.316 µM
# [22] = second compound 0.03 µM, first compound 1 µM
# [23] = second compound 0.03 µM, first compound 3.16 µM
# [24] = second compound 0.03 µM, first compound 10 µM
# [25] = second compound 0.0949 µM, first compound 0.0316 µM
# [26] = second compound 0.0949 µM, first compound 0.1 µM
# [27] = second compound 0.0949 µM, first compound 0.316 µM
# [28] = second compound 0.0949 µM, first compound 1 µM
# [29] = second compound 0.0949 µM, first compound 3.16 µM
# [30] = second compound 0.0949 µM, first compound 10 µM
# [31] = second compound 0.3 µM, first compound 0.0316 µM
# [32] = second compound 0.3 µM, first compound 0.1 µM
# [33] = second compound 0.3 µM, first compound 0.316 µM
# [34] = second compound 0.3 µM, first compound 1 µM
# [35] = second compound 0.3 µM, first compound 3.16 µM
# [36] = second compound 0.3 µM, first compound 10 µM
# 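Note: spheroids exposed to compounds for 7 days before readout.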
# 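Throughout, for viability, T/C: 100% = DMSO vehicle control viability.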
compound,measurement,setting,value
CC1(O)CCCC1n1c(=O)c(C(F)F)cc2cnc(NC3CCN(S(C)(=O)=O)CC3)nc21 (stereo unspecified) + CCn1c(-c2cccnc2C(C)OC)c2c3cc(ccc31)N1CCOC(CC(NC(=O)C(C(C)C)N(C)C(=O)C3(F)CCN(C(=O)C#CC(C)(C)N(C)C)CC3)C(=O)N3CCCC(N3)C(=O)OCC(C)(C)C2)C1,IC50,second compound 0.000949 µM,< 31.6 nM
same,IC50,second compound 0.003 µM,< 31.6 nM
same,IC50,second compound 0.00949 µM,< 31.6 nM
same,IC50,second compound 0.03 µM,< 31.6 nM
same,IC50,second compound 0.0949 µM,< 31.6 nM
same,IC50,second compound 0.3 µM,< 31.6 nM
same,"viability, T/C",[1],22.3%
same,"viability, T/C",[2],23.9%
same,"viability, T/C",[3],24.1%
same,"viability, T/C",[4],24.3%
same,"viability, T/C",[5],26%
same,"viability, T/C",[6],29.7%
same,"viability, T/C",[7],24%
same,"viability, T/C",[8],20.8%
same,"viability, T/C",[9],24.2%
same,"viability, T/C",[10],25.1%
same,"viability, T/C",[11],24.6%
same,"viability, T/C",[12],30.1%
same,"viability, T/C",[13],21.4%
same,"viability, T/C",[14],26.1%
same,"viability, T/C",[15],21.9%
same,"viability, T/C",[16],24.4%
same,"viability, T/C",[17],22.6%
same,"viability, T/C",[18],30.1%
same,"viability, T/C",[19],23.1%
same,"viability, T/C",[20],23%
same,"viability, T/C",[21],23.6%
same,"viability, T/C",[22],27.4%
same,"viability, T/C",[23],20.1%
same,"viability, T/C",[24],31%
same,"viability, T/C",[25],21.5%
same,"viability, T/C",[26],22.3%
same,"viability, T/C",[27],26.5%
same,"viability, T/C",[28],27.9%
same,"viability, T/C",[29],17.9%
same,"viability, T/C",[30],28.8%
same,"viability, T/C",[31],22.5%
same,"viability, T/C",[32],23.4%
same,"viability, T/C",[33],23%
same,"viability, T/C",[34],26.1%
same,"viability, T/C",[35],20.8%
same,"viability, T/C",[36],25.9%
CCC(CC)c1cc(NC2CCC(N)C2)n2nccc2n1 (stereo unspecified) + CCn1c(-c2cccnc2C(C)OC)c2c3cc(ccc31)N1CCOC(CC(NC(=O)C(C(C)C)N(C)C(=O)C3(F)CCN(C(=O)C#CC(C)(C)N(C)C)CC3)C(=O)N3CCCC(N3)C(=O)OCC(C)(C)C2)C1,IC50,second compound 0.000949 µM,< 31.6 nM
same,IC50,second compound 0.003 µM,< 31.6 nM
same,IC50,second compound 0.00949 µM,< 31.6 nM
same,IC50,second compound 0.03 µM,< 31.6 nM
same,IC50,second compound 0.0949 µM,< 31.6 nM
same,IC50,second compound 0.3 µM,< 31.6 nM
same,"viability, T/C",[1],24.2%
same,"viability, T/C",[2],25.9%
same,"viability, T/C",[3],22.9%
same,"viability, T/C",[4],31.1%
same,"viability, T/C",[5],14.9%
same,"viability, T/C",[6],32.4%
same,"viability, T/C",[7],23.2%
same,"viability, T/C",[8],24.3%
same,"viability, T/C",[9],23%
same,"viability, T/C",[10],29.3%
same,"viability, T/C",[11],12.1%
same,"viability, T/C",[12],39%
same,"viability, T/C",[13],25.1%
same,"viability, T/C",[14],23.2%
same,"viability, T/C",[15],24.5%
same,"viability, T/C",[16],31.1%
same,"viability, T/C",[17],13.7%
same,"viability, T/C",[18],40.9%
same,"viability, T/C",[19],23%
same,"viability, T/C",[20],25.1%
same,"viability, T/C",[21],27.3%
same,"viability, T/C",[22],33.5%
same,"viability, T/C",[23],14.6%
same,"viability, T/C",[24],45%
same,"viability, T/C",[25],21.5%
same,"viability, T/C",[26],24.5%
same,"viability, T/C",[27],29%
same,"viability, T/C",[28],32.5%
same,"viability, T/C",[29],16.1%
same,"viability, T/C",[30],48.7%
same,"viability, T/C",[31],23.3%
same,"viability, T/C",[32],26.9%
same,"viability, T/C",[33],31.1%
same,"viability, T/C",[34],33.1%
same,"viability, T/C",[35],13.1%
same,"viability, T/C",[36],44.8%
Cc1nc(N2CCC3(CC2)COC(C)C3N)c(CO)nc1Sc1ccnc(N)c1Cl (stereo unspecified) + CCn1c(-c2cccnc2C(C)OC)c2c3cc(ccc31)N1CCOC(CC(NC(=O)C(C(C)C)N(C)C(=O)C3(F)CCN(C(=O)C#CC(C)(C)N(C)C)CC3)C(=O)N3CCCC(N3)C(=O)OCC(C)(C)C2)C1,IC50,second compound 0.000949 µM,< 31.6 nM
same,IC50,second compound 0.003 µM,< 31.6 nM
same,IC50,second compound 0.00949 µM,< 31.6 nM
same,IC50,second compound 0.03 µM,< 31.6 nM
same,IC50,second compound 0.0949 µM,< 31.6 nM
same,IC50,second compound 0.3 µM,< 31.6 nM
same,"viability, T/C",[1],21.6%
same,"viability, T/C",[2],20.3%
same,"viability, T/C",[3],13.3%
same,"viability, T/C",[4],18.1%
same,"viability, T/C",[5],19.1%
same,"viability, T/C",[6],14.4%
same,"viability, T/C",[7],21.7%
same,"viability, T/C",[8],20.4%
same,"viability, T/C",[9],14.2%
same,"viability, T/C",[10],17.5%
same,"viability, T/C",[11],18.1%
same,"viability, T/C",[12],13.7%
same,"viability, T/C",[13],20.1%
same,"viability, T/C",[14],16.8%
same,"viability, T/C",[15],16.8%
same,"viability, T/C",[16],18.4%
same,"viability, T/C",[17],15.7%
same,"viability, T/C",[18],15.6%
same,"viability, T/C",[19],19.7%
same,"viability, T/C",[20],19%
same,"viability, T/C",[21],17.5%
same,"viability, T/C",[22],15.7%
same,"viability, T/C",[23],13.1%
same,"viability, T/C",[24],17.6%
same,"viability, T/C",[25],21.4%
same,"viability, T/C",[26],20.7%
same,"viability, T/C",[27],19.9%
same,"viability, T/C",[28],17.3%
same,"viability, T/C",[29],15.2%
same,"viability, T/C",[30],19.6%
same,"viability, T/C",[31],22.1%
same,"viability, T/C",[32],20.9%
same,"viability, T/C",[33],20.6%
same,"viability, T/C",[34],18.3%
same,"viability, T/C",[35],18.8%
same,"viability, T/C",[36],23.2%
